Experimental data published in US9963442B2, “Pyridones as herbicides” (E I DU PONT DE NEMOURS AND COMPANY, priority 2014, dated 2018).

Key:
Type in all cases: in vivo
[1] = test system: barnyardgrass (Echinochloa crus-galli); assay: Test B flooded paddy test; design: key: 0 = no effect, 100 = complete control; details: Flood, 250 g ai/ha applied to paddy water at 2-leaf stage; visually evaluated after 13 to 15 days; scale 0 (no effect) to 100 (complete control)
Method: (§1) Plant species in the flooded paddy test selected from rice (Oryza sativa), sedge, umbrella (small-flower umbrella sedge, Cyperus difformis), ducksalad (Heteranthera limosa), and barnyardgrass (Echinochloa crus-galli) were grown to the 2-leaf stage for testing. At time of treatment, test pots were flooded to 3 cm above the soil surface, treated by application of test compounds directly to the paddy water, and then maintained at that water depth for the duration of the test. Treated plants and controls were maintained in a greenhouse for 13 to 15 days, after which time all species were compared to controls and visually evaluated. Plant response ratings, summarized in Table B, are based on a scale of 0 to 100 where 0 is no effect and 100 is complete control. A dash (-) response means no test result.

[2] = test system: sedge, umbrella (small-flower umbrella sedge, Cyperus difformis); assay: Test B flooded paddy test; design: key: 0 = no effect, 100 = complete control; details: Flood, 250 g ai/ha applied to paddy water at 2-leaf stage; visually evaluated after 13 to 15 days; scale 0 (no effect) to 100 (complete control)
Method: as §1

[3] = test system: ducksalad (Heteranthera limosa); assay: Test B flooded paddy test; design: key: 0 = no effect, 100 = complete control; details: Flood, 250 g ai/ha applied to paddy water at 2-leaf stage; visually evaluated after 13 to 15 days; scale 0 (no effect) to 100 (complete control)
Method: as §1

corn (Zea mays) = assay: Test A postemergence application; details: approx. 10 days
Text: (§2) Seeds of plant species selected from barnyardgrass (Echinochloa crus-galli), kochia (Kochia scoparia), ragweed (common ragweed, Ambrosia elatior), Italian ryegrass (Lolium multiflorum), giant foxtail (Setaria faberii), and pigweed (Amaranthus retroflexus) were planted into a blend of loam soil and sand and treated preemergence with a directed soil spray using test chemicals formulated in a non-phytotoxic solvent mixture which included a surfactant. At the same time, plants selected from these weed species and also wheat (Triticum aestivum), corn (Zea mays), blackgrass (Alopecurus myosuroides), and galium (catchweed bedstraw, Galium aparine) were planted in pots containing the same blend of loam soil and sand and treated with postemergence applications of test chemicals formulated in the same manner. Plants ranged in height from 2 to 10 cm and were in the one- to two-leaf stage for the postemergence treatment. Treated plants and untreated controls were maintained in a greenhouse for approximately 10 days, after which time all treated plants were compared to untreated controls and visually evaluated for injury. Plant response ratings, summarized in Table A, are based on a 0 to 100 scale where 0 is no effect and 100 is complete control. A dash (-) response means no test result.

[4] = test system: wheat (Triticum aestivum); assay: Test A postemergence application; details: approx. 10 days
Text: as §2

[5] = test system: galium (catchweed bedstraw, Galium aparine); assay: Test A postemergence application; details: approx. 10 days
Text: as §2

[6] = test system: Italian ryegrass (Lolium multiflorum); assay: Test A postemergence application; details: approx. 10 days
Text: as §2

[7] = test system: barnyardgrass (Echinochloa crus-galli); assay: Test A postemergence application; details: approx. 10 days
Text: as §2

[8] = test system: giant foxtail (Setaria faberii); assay: Test A postemergence application; details: approx. 10 days
Text: as §2

[9] = test system: blackgrass (Alopecurus myosuroides); assay: Test A postemergence application; details: approx. 10 days
Text: as §2

[10] = test system: pigweed (Amaranthus retroflexus); assay: Test A postemergence application; details: approx. 10 days
Text: as §2

[11] = test system: ragweed (common ragweed, Ambrosia elatior); assay: Test A postemergence application; details: approx. 10 days
Text: as §2

kochia (Kochia scoparia) = assay: Test A postemergence application; details: approx. 10 days
Text: as §2

soybean (Glycine max) = assay: Test C postemergence; details: scale 0 to 100, 0 is no effect, 100 is complete control
Text: (§3) Seeds of plant species selected from blackgrass (Alopecurus myosuroides), Italian ryegrass (Lolium multiflorum), winter wheat (Triticum aestivum), galium (catchweed bedstraw, Galium aparine), corn (Zea mays), large (Lg) crabgrass (Digitaria sanguinalis), giant foxtail (Setaria faberii), johnsongrass (Sorghum halepense), lambsquarters (Chenopodium album), morningglory (Ipomoea coccinea), yellow nutsedge (Cyperus esculentus), pigweed (Amaranthus retroflexus), ragweed (common ragweed, Ambrosia elatior), soybean (Glycine max), barnyardgrass (Echinochloa crus-galli), oilseed rape (Brassica napus), waterhemp (common waterhemp, Amaranthus rudis), and velvetleaf (Abutilon theophrasti) were planted into a blend of loam soil and sand and treated preemergence with test chemicals formulated in a non-phytotoxic solvent mixture which included a surfactant. At the same time, plants selected from these crop and weed species and also chickweed (common chickweed, Stellaria media), kochia (Kochia scoparia), and wild oat (Avena fatua), were planted in pots containing Sunshine Redi-Earth® planting medium comprising spaghnum peat moss, vermiculite, starter nutrients and dolomitic limestone and treated with postemergence applications of test chemicals formulated in the same manner. Plants ranged in height from 2 to 18 cm (1- to 4-leaf stage) for postemergence treatments. Treated plants and controls were maintained in a greenhouse for 13 to 15 days, after which time all species were compared to controls and visually evaluated. Plant response ratings, summarized in Table C, are based on a scale of 0 to 100 where 0 is no effect and 100 is complete control. A dash (-) response means no test result.

[12] = test system: large (Lg) crabgrass (Digitaria sanguinalis); assay: Test C postemergence; details: scale 0 to 100, 0 is no effect, 100 is complete control
Text: as §3

[13] = test system: galium (catchweed bedstraw, Galium aparine); assay: Test C postemergence; details: scale 0 to 100, 0 is no effect, 100 is complete control
Text: as §3

[14] = test system: johnsongrass (Sorghum halepense); assay: Test C postemergence; details: scale 0 to 100, 0 is no effect, 100 is complete control
Text: as §3

[15] = test system: lambsquarters (Chenopodium album); assay: Test C postemergence; details: scale 0 to 100, 0 is no effect, 100 is complete control
Text: as §3

[16] = test system: ragweed (common ragweed, Ambrosia elatior); assay: Test C postemergence; details: scale 0 to 100, 0 is no effect, 100 is complete control
Text: as §3

## O=c1cccc(Oc2ncc(Cl)cn2)n1-c1ncc(Cl)cn1 [Compound 6]
[1]
  Plant response rating, Barnyardgrass: 0
[2]
  Plant response rating, Sedge, Umbrella: 85
[3]
  Plant response rating, Ducksalad: 80
Corn (Zea mays); 31 g ai/ha
  Plant response rating (0 to 100 scale, 0 no effect, 100 complete control), Corn: 0
Corn (Zea mays); 125 g ai/ha
  Plant response rating (0 to 100 scale, 0 no effect, 100 complete control), Corn: 20
[4]; 31 g ai/ha
  Plant response rating (0 to 100 scale, 0 no effect, 100 complete control), Wheat: 0
[4]; 125 g ai/ha
  Plant response rating (0 to 100 scale, 0 no effect, 100 complete control), Wheat: 0
[5]; 31 g ai/ha
  Plant response rating (0 to 100 scale, 0 no effect, 100 complete control), Galium: 60
[5]; 125 g ai/ha
  Plant response rating (0 to 100 scale, 0 no effect, 100 complete control), Galium: 90
[6]; 31 g ai/ha
  Plant response rating (0 to 100 scale, 0 no effect, 100 complete control), Ryegrass, Italian: 0
[6]; 125 g ai/ha
  Plant response rating (0 to 100 scale, 0 no effect, 100 complete control), Ryegrass, Italian: 20
[7]; 31 g ai/ha
  Plant response rating (0 to 100 scale, 0 no effect, 100 complete control), Barnyardgrass: 10
[7]; 125 g ai/ha
  Plant response rating (0 to 100 scale, 0 no effect, 100 complete control), Barnyardgrass: 30
[8]; 31 g ai/ha
  Plant response rating (0 to 100 scale, 0 no effect, 100 complete control), Foxtail, Giant: 10
[8]; 125 g ai/ha
  Plant response rating (0 to 100 scale, 0 no effect, 100 complete control), Foxtail, Giant: 60
[9]; 31 g ai/ha
  Plant response rating (0 to 100 scale, 0 no effect, 100 complete control), Blackgrass: 10
[9]; 125 g ai/ha
  Plant response rating (0 to 100 scale, 0 no effect, 100 complete control), Blackgrass: 50
[10]; 31 g ai/ha
  Plant response rating (0 to 100 scale, 0 no effect, 100 complete control), Pigweed: 80
[10]; 125 g ai/ha
  Plant response rating (0 to 100 scale, 0 no effect, 100 complete control), Pigweed: 90
[11]; 31 g ai/ha
  Plant response rating (0 to 100 scale, 0 no effect, 100 complete control), Ragweed: 30
[11]; 125 g ai/ha
  Plant response rating (0 to 100 scale, 0 no effect, 100 complete control), Ragweed: 50
Kochia (Kochia scoparia); 31 g ai/ha
  Plant response rating (0 to 100 scale, 0 no effect, 100 complete control), Kochia: 80
Kochia (Kochia scoparia); 125 g ai/ha
  Plant response rating (0 to 100 scale, 0 no effect, 100 complete control), Kochia: 90
Soybean (Glycine max); 16 g ai/ha
  Plant response rating, Soybean: 40
Soybean (Glycine max); 31 g ai/ha
  Plant response rating, Soybean: 45
Soybean (Glycine max); 62 g ai/ha
  Plant response rating, Soybean: 60
Soybean (Glycine max); 125 g ai/ha
  Plant response rating, Soybean: 70
[12]; 16 g ai/ha
  Plant response rating, Crabgrass, Large: 5
[12]; 31 g ai/ha
  Plant response rating, Crabgrass, Large: 15
[12]; 62 g ai/ha
  Plant response rating, Crabgrass, Large: 5
[12]; 125 g ai/ha
  Plant response rating, Crabgrass, Large: 20
[13]; 16 g ai/ha
  Plant response rating, Galium: 50
[13]; 31 g ai/ha
  Plant response rating, Galium: 60
[13]; 62 g ai/ha
  Plant response rating, Galium: 60
[13]; 125 g ai/ha
  Plant response rating, Galium: 80
[14]; 16 g ai/ha
  Plant response rating, Johnsongrass: 0
[14]; 31 g ai/ha
  Plant response rating, Johnsongrass: 5
[14]; 62 g ai/ha
  Plant response rating, Johnsongrass: 5
[14]; 125 g ai/ha
  Plant response rating, Johnsongrass: 5
[15]; 16 g ai/ha
  Plant response rating, Lambsquarters: 20
[15]; 31 g ai/ha
  Plant response rating, Lambsquarters: 35
[15]; 62 g ai/ha
  Plant response rating, Lambsquarters: 65
[15]; 125 g ai/ha
  Plant response rating, Lambsquarters: 70
[16]; 16 g ai/ha
  Plant response rating, Ragweed: 25
[16]; 31 g ai/ha
  Plant response rating, Ragweed: 45
[16]; 62 g ai/ha
  Plant response rating, Ragweed: 40
[16]; 125 g ai/ha
  Plant response rating, Ragweed: 70
